Measurements published in US11357811B2, “Methods to isolate anti-microbials from fruit or seed extracts” (priority 2012, dated 2022).

Experiments:
influenza A/H1N1 = type: cell-based
vaccinia virus = type: cell-based
herpes simplex virus-1 = type: cell-based
poliovirus 1 = type: cell-based
[1] = test system: human parainfluenza 3 virus (HPIV3); assay: antiviral testing against human parainfluenza 3 virus; type: cell-based; details: commercially available preparation; 100 ng/mL-100 μg/mL
[2] = at 1-100 μg/mL

Compound | influenza A/H1N1 inhibition by hemagglutination read-out (influenza A/H1N1) | anti-viral activity against vaccinia virus (vaccinia virus) | anti-viral activity against herpes simplex virus-1 (herpes simplex virus-1) | anti-viral activity against poliovirus Sabin-1 (poliovirus 1) | anti-viral activity against parainfluenza virus-3 [1] | anti-viral activity against influenza A/California/July/2009 (H1N1) (influenza A/H1N1) | anti-viral activity against vaccinia virus (in words) (vaccinia virus) | toxicity [2]
CCOC(=O)C1=C[C@@H](OC(CC)CC)[C@H](NC(C)=O)[C@@H](N)C1 [Tamiflu] | effective viral inhibition | – | – | – | – | – | – | –
COc1cc(C=CC(=O)O)cc(OC)c1O (stereo in doubt) [sinapinic acid] | – | None of the compounds showed anti-viral activity | None of the compounds showed anti-viral activity | None of the compounds showed anti-viral activity | None of the compounds showed anti-viral activity | None of the compounds showed anti-viral activity | – | –
O=c1c(O[C@@H]2O[C@H](CO)[C@H](O)[C@H](O)[C@H]2O)c(-c2ccc(O)c(O)c2)oc2cc(O)cc(O)c12 [quercetin-β-3-galactoside] | – | – | – | – | – | – | core) was found to be inactive. | –
Oc1cc(O)c2c(c1)O[C@@]1(c3ccc(O)c(O)c3)Oc3cc(O)c4c(c3[C@@H]2[C@H]1O)O[C@H](c1ccc(O)c(O)c1)[C@H](O)C4 [procyanidin A2] | – | None of the compounds showed anti-viral activity | None of the compounds showed anti-viral activity | None of the compounds showed anti-viral activity | None of the compounds showed anti-viral activity | None of the compounds showed anti-viral activity | – | –
CC(C)[C@]12O[C@H]1[C@@H]1O[C@]13[C@]1(O[C@H]1C[C@H]1C4=C(CC[C@@]13C)C(=O)OC4)[C@@H]2O [triptolide] | – | None of the compounds showed anti-viral activity | None of the compounds showed anti-viral activity | None of the compounds showed anti-viral activity | None of the compounds showed anti-viral activity | None of the compounds showed anti-viral activity | – | toxic
O=c1c(O[C@@H]2O[C@H](CO)[C@H](O)[C@H](O)[C@H]2O)c(-c2cc(O)c(O)c(O)c2)oc2cc(O)cc(O)c12 [myricetin-beta-3-galactoside] | – | None of the compounds showed anti-viral activity | None of the compounds showed anti-viral activity | None of the compounds showed anti-viral activity | None of the compounds showed anti-viral activity | None of the compounds showed anti-viral activity | – | –
